The values below come from patent US8138205B2, “Heteroarylalkoxy-substituted quinolone inhibitors of PDE4” (Kalypsys, Inc., priority 2006, dated 2012).

The structures appear in SMILES notation.

Series [1] is described as follows: Stability Protocol. The settings on record: pH 7.4 sodium phosphate buffer, preliminary shelf life (T90) estimated from stressed samples. Format: physicochemical. On the procedure: About 3 mg of a compound was dissolved in 3 mL of acetonitrile/water mixture (50/50). 100 μL of the stock solution was added to 20 mL each of 0.025 M pH 5.0 sodium acetate buffer (A5.0), 0.025 M pH 5.0 citrate buffer (C5.0) and 0.025 M pH 7.4 sodium phosphate buffer (P7.4). A two mL aliquot of each solution was kept in a glass vial equipped a cap lined with Teflon. Two vials containing the solution were stored at 4° C. or −20° C. as control. Other aliquots were stressed at RT, 45° C. or 75° C. for specified time check points, e.g. 1 day, 1 w, 2 w, 4 w, 8 w,12 w. The stressed samples in duplicate were assayed against the control using HPLC. The results were reported in % degradation. Preliminary shelf life (T90) was estimated assuming the rate of chemical degradation is double when the temperature is up 10° C.

The subject of series [2] is Rabbits. In words: Lacrimal Gland Inflammation-Induced Dry Eye in Rabbits (corneal staining, tear breakup time). Format: in vivo. The settings on record: topical ocular BID, rabbit ConA dry eye. An excerpt: A more detailed description of the assay used herein may be found in Naglehout, T J et al. 2005, “Preservation of Tear Film Integrity and Inhibition of Corneal Injury by Dexamethasone in a Rabbit Model of Lacrimal Gland Inflammation-Induced Dry Eye,” J. Ocular Pharm. Ther., 21:2. 139-148, the disclosure of which is hereby incorporated by reference as if written herein in its entirety.
Rabbits (n=4/group) were randomized into treatment groups and dosed topically BID with maxidex vehicle or test drug beginning one day prior to initiation of dry eye. Each rabbit received bilateral lacrimal gland injections of saline or ConA (300 μg/30 μl) and topical ocular dosing was continued BID throughout the study.
Desiccation was initiated 1-2 hours following lacrimal gland injection by placing conscious rabbits in the environmental chamber (10-15% humidity/72° F.). Following 72 consecutive hours of exposure to this dry environment, the animals were anesthetized and sutures were placed in each upper and lower eyelid and lifted to form a corneal/conjunctival cup. Methylene blue dye (1 mL, 1% in dH2O) was added to the cup for three minutes and the excess removed by washing with 200 mL BSS®. The contralateral eye was then stained using the same procedure. Rabbits were euthanized immediately following the staining procedure and the eyes were excised. The corneas were isolated with a trephine and the 9.5-mm punch of the cornea was placed in 2 mL acetone/saturated sodium sulfate (7:3, vol./vol.). Absorbance of the extracted dye was determined at 660 nm.
TBUT was quantified in a separate group of treated animals. TBUT was determined by instilling 5 μL sodium fluorescein into the cul de sac and manually blinking the lids to distribute the fluorescein within the tear film. Under slit lamp observation, the eye was held open and the time whereby one or more black spots or streaks appeared in the precorneal tear film was recorded. The rabbits were euthanized 3 days following ConA injection.

Series [3] can be described thus: Solubility Protocol. Format: physicochemical. The settings on record: aqueous buffer, thermodynamic from solid; pH 7.4, 0.1 M sodium phosphate buffer. On the procedure:
About 5 mg of a compound was mixed with 500 μL of pH 7.4, 0.1 M sodium phosphate buffer. The mixture was adjusted to the original pH of 7.4 and then mixed overnight or longer via rotary mixing. The sample was checked for pH and then filtered through a 0.45 μm filter. If the pH drifted away, the sample was adjusted to its original pH and mixed for at least 15 minutes before filtration. The filtrate was analyzed using HPLC.

In series [4] the target is T1, PDE4B (Homo sapiens, UniProt Q07343).
T1 construct: hex-histidine (His6) (N); made in house
T1 sequence (Q07343 330-659 limits assumed, species assumed): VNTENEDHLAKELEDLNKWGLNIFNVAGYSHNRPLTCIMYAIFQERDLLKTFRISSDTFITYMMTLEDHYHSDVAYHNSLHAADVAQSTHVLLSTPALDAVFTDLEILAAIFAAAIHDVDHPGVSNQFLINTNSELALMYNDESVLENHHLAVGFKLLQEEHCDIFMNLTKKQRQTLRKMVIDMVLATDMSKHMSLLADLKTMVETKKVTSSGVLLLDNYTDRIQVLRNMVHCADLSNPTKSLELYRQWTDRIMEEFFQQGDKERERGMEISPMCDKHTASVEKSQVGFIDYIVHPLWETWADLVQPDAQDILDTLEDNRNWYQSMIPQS
In words: PDE/AK Biological Activity Assay (coupled PDE/adenylate kinase bioluminescent assay). Format: biochemical. The settings on record: catalytic domain of PDE4B, read-out: PDE4 Enzyme IC50.

In general, solubility refers to the dissolved amount per volume that the medium holds. Low readings indicate little dissolved substance, high ones much dissolved substance. `COc1ccc2c(Nc3c(Cl)cncc3Cl)cc(=O)[nH]c2c1OC1CCCC1` [Example 1, 8-(Cyclopentyloxy)-4-(3,5-dichloropyridin-4-ylamino)-7-methoxyquinolin-2(1H)-one]: the “Stability, pH 7.4” value in series [1] is on record as “+ (+ indicates ≧1 Year)”. The “Activity at Percent Concentration Tested” value in series [2] (1 percent), in series [2] (1 × 10^−1 percent) and in series [2] (1 × 10^−2 percent) was “Inactive” throughout. Also, the solubility in series [3] is at least 1000 µg/mL.
Consider `COc1ccc2c(Nc3c(C)cncc3C)cc(=O)[nH]c2c1OC1CCCC1` [Example 5, 8-(Cyclopentyloxy)-4-(3,5-dimethylpyridin-4-ylamino)-7-methoxyquinolin-2(1H)-one], for which, in series [1], the “Stability, pH 7.4” value is on record as “+ (+ indicates ≧1 Year)”. Besides, the “Activity at Percent Concentration Tested” value in series [2] (1 × 10^−2 percent), in series [2] (1 × 10^−4 percent) and in series [2] (1 × 10^−6 percent) was “Inactive” throughout. The compound also had a solubility in series [3] of at least 1000 µg/mL.
Regarding `COc1ccc2c(Nc3c(C)cncc3C)cc(=O)[nH]c2c1OCC1CC1` [Example 8, 8-(Cyclopropylmethoxy)-4-(3,5-dimethylpyridin-4-ylamino)-7-methoxyquinolin-2(1H)-one], the “Stability, pH 7.4” value in series [1] was “+ (+ indicates ≧1 Year)”. Besides, the “Activity at Percent Concentration Tested” value in series [2] (1 × 10^−2 percent), in series [2] (1 × 10^−4 percent) and in series [2] (1 × 10^−6 percent) was “Inactive” throughout.
For orientation: IC50 means the midpoint of a concentration-inhibition curve. Regarding `COc1ccc2c(Nc3c(Cl)cncc3Cl)cc(=O)[nH]c2c1OCCCCCC(N)=O` [Example 58, 6-(4-(3,5-dichloropyridin-4-ylamino)-7-methoxy-2-oxo-1,2-dihydroquinolin-8-yloxy)hexanamide], the “Stability, pH 7.4” value in series [1] is listed as “+ (+ indicates ≧1 Year)”. In series [4], the IC50 was under 1 µM. For the same compound, the solubility in series [3] was at least 1000 µg/mL.
